# Biological target: skeletal myofibrils (myosin ATPase activity)
# Assay: Skeletal Myofibril ATPase Assay
# Assay type: biochemical
# Conditions: PK-LDH coupled, absorbance at 340 nm
# Procedure: Overview: Myosin ATPase activity is assessed by using a coupled reaction system, in which ADP generated by the myosin ATPase function is coupled to the disappearance of NADH through the pyruvate kinase/lactate dehydrogenase (PK-LDH) system. Myosin ATPase activity produces ADP, which is used as a substrate for PK to produce pyruvate and regenerate ATP. The pyruvate is then used as a substrate by LDH to oxidize NADH to NAD+. The rate of the reaction is monitored through the time-dependent disappearance of NADH using absorbance at 340 nm. Inhibition of ATPase activity by the assayed compounds is indicated by a reduced rate of NADH loss, relative to vehicle-treated controls, over the experimental time window. To assess the selectivity of the assayed compounds for skeletal myofibrils, the compounds are counter-screened in cardiac myofibrils.
# Materials: The following stock solutions and reagents were used in the Skeletal Myofibril ATPase Assay:
# Stock Solutions of pCa buffer. Combine PIPES, CaCl2, and EGTA solutions with 70 mL of water. Adjust pH to 7.0 and bring final volume to 100 mL.
# Skeletal Myofibril ATPase Assay Procedure: BSA, ATP, NADH, PEP, and DTT solutions were thawed at room temperature, then transferred to ice. Pellet-frozen myofibrils (approximately twice the required volume) were transferred into a sufficiently large tube and capped. Myofibrils were thawed by rolling in a water bath for approximately 15 min at room temperature and cooled on ice. Buffers A and B were prepared by adjusting volumes as necessary for required number of wells and stored on ice. 0.5 μL of the compounds to be assayed were added into wells of a 384-well plate. Buffers A and B were mixed by inversion immediately prior to use, then 25 μL of each was dispensed using a Multidrop dispenser (Buffer A first, then Buffer B). The absorbance within the wells was measured at 340 nm, using a kinetic protocol in which the wells are read every 1.5-2 min for 1 h. The reaction rate was qualitatively assessed by subtracting the minimum absorbance value from the maximum value for each well, using either the SoftMax Pro plate reader software or a spreadsheet program such as Excel. Using GraphPad Prism 8.0, the data was normalized, with 100% activity defined as the absorbance change in the 1% DMSO vehicle wells and 0% assigned to no change in absorbance over the course of the experiment. The normalized data were fit to a variable-slope four-parameter logistic model, constraining the bottom to be 0 or greater. Compounds of Table 1 to 4 were tested and results of the assay appear in Table 5 herein. A=IC50 is less than or equal to 10 μM; B=IC50 is greater than 10 μM and less than 100 μM; C=IC50 is greater than 100 μM; […].
row,Compound,IC50 [µM]
1,"O=c1ccc(-c2cnc(OCC3(F)COC3)nc2)nn1Cc1nnc(-c2ccccc2)s1 [Compound 92, 6-(2-((3-fluorooxetan-3-yl)methoxy)pyrimidin-5-yl)-2-((5-phenyl-1,3,4-thiadiazol-2-yl)methyl)pyridazin-3(2H)-one]",< 10
2,"O=c1ccc(-c2cnc(OCC(F)(F)F)nc2)nn1Cc1nnc(-c2ccccc2)s1 [Compound 94, 2-((5-phenyl-1,3,4-thiadiazol-2-yl)methyl)-6-(2-(2,2,2-trifluoroethoxy)pyrimidin-5-yl)pyridazin-3(2H)-one]",< 10
3,"O=c1ccc(-c2cnc(OCC(F)(F)F)nc2)nn1Cc1nnc(N2CCCCC2)s1 [Compound 95, 2-((5-(piperidin-1-yl)-1,3,4-thiadiazol-2-yl)methyl)-6-(2-(2,2,2-trifluoroethoxy)pyrimidin-5-yl)pyridazin-3(2H)-one]",< 10
4,"O=c1ccc(-c2cnc(OCC(F)(F)F)nc2)nn1Cc1ccc2[nH]ncc2c1 [Compound 96, 2-((1H-indazol-5-yl)methyl)-6-(2-(2,2,2-trifluoroethoxy)pyrimidin-5-yl)pyridazin-3(2H)-one]",< 10
5,"O=c1ccc(-c2cnc(OCCOC(F)(F)F)nc2)nn1Cc1cncc(F)c1 [Compound 97, 2-((5-fluoropyridin-3-yl)methyl)-6-(2-(2-(trifluoromethoxy)ethoxy)pyrimidin-5-yl)pyridazine-3(2H)-one]",< 10
6,"CCc1ncc(Cn2nc(-c3cnc(OCC(F)(F)F)nc3)ccc2=O)s1 [Compound 99, 2-((2-ethylthiazol-5-yl)methyl)-6-(2-(2,2,2-trifluoroethoxy)pyrimidin-5-yl)pyridazine-3(2H)-one]",< 10
7,"O=c1ccc(-c2cnc(OCC(F)(F)F)nc2)nn1Cc1cnc(C2CC2)s1 [Compound 100, 2-((2-cyclopropylthiazol-5-yl)methyl)-6-(2-(2,2,2-trifluoroethoxy)pyrimidin-5-yl)pyridazine-3(2H)-one]",< 10
8,"Cc1cncc(Cn2nc(-c3cnc(OCC(F)(F)F)nc3)ccc2=O)c1 [Compound 101, 2-((5-methylpyridin-3-yl)methyl)-6-(2-(2,2,2-trifluoroethoxy)pyrimidin-5-yl)pyridazine-3(2H)-one]",< 10
9,CSCCOc1ncc(-c2ccc(=O)n(Cc3cncc(F)c3)n2)cn1 [Compound 102],< 10
10,"O=c1ccc(-c2cnc(OCC3COC3)nc2)nn1Cc1cncc(F)c1 [Compound 103, 2((5-fluoropyridin-3-yl)methyl)-6-(2-(oxetan-3-ylmethoxy)pyrimidin-5-yl)pyridazine-3(2H)-one]",< 10
11,"CC(C)(C)COc1ncc(-c2ccc(=O)n(Cc3cncc(F)c3)n2)cn1 [Compound 104, 2((5-fluoropyridin-3-yl)methyl)-6-(2-(neopentyloxy)pyrimidin-5-yl)pyridazine-3(2H)-one]",< 10
12,"CC(C)COc1ncc(-c2ccc(=O)n(Cc3cncc(F)c3)n2)cn1 [Compound 110, 2-((5-fluoropyridin-3-yl)methyl)-6-(2-isobutoxypyrimidin-5-yl)pyridazine-3(2H)-one]",< 10
13,"CC[C@H](C)Oc1ncc(-c2ccc(=O)n(Cc3cncc(F)c3)n2)cn1 [Compound 120, (S)-6-(2-(sec-butoxy)pyrimidin-5-yl)-2((5-fluropyridin-3-yl)methyl)pyridazine-3(2H)-one]",< 10
14,"CCc1ncc(Cn2nc(-c3cnc(OCC(C)C)nc3)ccc2=O)s1 [Compound 124, 2-((2-ethylthiazol-5-yl)methyl)-6-(2-isobutoxypyrimidin-5-yl)pyridazine-3(2H)-one]",< 10

# Other lines, results leading:
row,IC50 [µM],Compound
1,< 10,O=c1ccc(-c2cnc(OCC(F)(F)F)nc2)nn1Cc1cnc(C(F)F)s1 [Compound 105]
2,< 10,"O=c1ccc(-c2cnc(OCC(F)F)nc2)nn1Cc1cncc(F)c1 [Compound 106, 6-(2-(2,2-difluoroethoxy)pyrimidin-5-yl)-2-((5-fluoropyridin-3-yl)methyl)pyridazine-3(2H)-one]"
3,> 100,"O=c1ccc(-c2cnc(OCc3cncc(F)c3)nc2)nn1Cc1cncc(F)c1 [Compound 107, 6-(2-((5-fluoropyridin-3-yl)methoxy)pyrimidin-5-yl)-2-((5-fluoropyridin-3-yl)methyl)pyridazin-3(2H)-one]"
4,< 10,"CSCOc1ncc(-c2ccc(=O)n(Cc3cncc(F)c3)n2)cn1 [Compound 108, 2-((5-fluoropyridin-3-yl)methyl)-6-(2-((methylthio)methoxy)pyrimidin-5-yl)pyridazine-3(2H)-one]"
5,< 10,"CSCc1ncc(Cn2nc(-c3cnc(OCC(F)(F)F)nc3)ccc2=O)s1 [Compound 109, 2-((2-((methylthio)methyl)thiazol-5-yl)methyl)-6-(2-(2,2,2-trifluoroethoxy)pyrimidin-5-yl)pyridazine-3(2H)-one]"
6,< 10,CSc1cncc(Cn2nc(-c3cnc(OCC(F)(F)F)nc3)ccc2=O)c1 [Compound 111]
7,< 10,"CCCOc1ncc(-c2ccc(=O)n(Cc3cnc(CC)s3)n2)cn1 [Compound 112, 2-((2-ethylthiazol-5-yl)methyl)-6-(2-propoxypyrimidin-5-yl)pyridazine-3(2H)-one]"
8,< 10,"CC(F)(F)COc1ncc(-c2ccc(=O)n(Cc3cncc(F)c3)n2)cn1 [Compound 113, 6-(2-(2,2-difluoropropoxy)pyrimidin-5-yl)-2-((5-fluoropyridin-3-yl)methyl)pyridazine-3(2H)-one]"
9,< 10,"CC(C)c1ncc(Cn2nc(-c3cnc(OCC(F)(F)F)nc3)ccc2=O)s1 [Compound 114, 2-((2-isopropylthiazol-5-yl)methyl)-6-(2-(2,2,2-trifluoroethoxy)pyrimidin-5-yl)pyridazine-3(2H)-one]"
10,< 10,"CC(C)Oc1ncc(-c2ccc(=O)n(Cc3cncc(F)c3)n2)cn1 [Compound 115, 2-((5-f1uoropyridin-3-yl)methyl)-6-(2-isopropoxypyrimidin-5-yl)pyridazine-3(2H)-one]"
11,< 10,"CCCc1ncc(Cn2nc(-c3cnc(OCC(F)(F)F)nc3)ccc2=O)s1 [Compound 116, 2-((2-propylthiazol-5-yl)methyl)-6-(2-(2,2,2-trifluoroethoxy)pyrimidin-5-yl)pyridazine-3(2H)-one]"
12,< 10,"O=c1ccc(-c2cnc(OCCC(F)(F)F)nc2)nn1Cc1cncc(F)c1 [Compound 117, 2-((5-f1uoropyridin-3-yl)methyl)-6-(2-(3,3,3-trifluoropropoxy)pyrimidin-5-yl)pyridazine-3(2H)-one]"
13,< 10,"O=c1ccc(-c2cnc(OCC(F)(F)F)nc2)nn1Cc1cncc(F)n1 [Compound 118, 2-((6-fluoropyrazin-yl)methyl)-6-(2-(2,2,2-trifluoroethoxy)pyrimidin-5-yl)pyridazin-3(2H)-one]"
14,< 10,"O=c1ccc(-c2cnc(OCC3CC3)nc2)nn1Cc1cncc(F)c1 [Compound 119, 6-(2-(cyclopropylmethoxy)pyrimidin-5-yl)-2-((5-fluoropyridin-3-yl)methyl)pyridazine-3(2H)-one]"
15,< 10,"CC(C)(F)COc1ncc(-c2ccc(=O)n(Cc3cncc(F)c3)n2)cn1 [Compound 121, 6-(2-(2-fluoro-2-methylpropoxy)pyrimidin-5-yl)-2-((5-f1uoropyridin-3-yl)methyl)pyridazine-3(2H)-one]"
16,< 10,"O=c1ccc(-c2cnc(OCC(F)(F)F)nc2)nn1Cc1cnc(C2CCC2)s1 [Compound 122, 2-((2-cyclobutylthiazol-5-yl)methyl)-6-(2-(2,2,2-trifluoroethoxy)pyrimidin-5-yl)pyridazine-3(2H)-one]"
17,< 10,"CSC(C)COc1ncc(-c2ccc(=O)n(Cc3cncc(F)c3)n2)cn1 (stereo not shown) [Compound 123, 2((5-fluoropyridin-3-yl)methyl)-6-(2-(2-(methylthio)propoxy)pyrimidin-5-yl)pyridazine-3(2H)-one]"
18,< 10,"COC(C)(C)COc1ncc(-c2ccc(=O)n(Cc3cncc(F)c3)n2)cn1 [Compound 125, 2-((5-fluoropyridin-3-yl)methyl)-6-(2-(2-methoxy-2-methylpropoxy)pyrimidin-5-yl)pyridazine-3(2H)-one]"
19,< 10,"O=c1ccc(-c2cnc(OCC3CCC3)nc2)nn1Cc1cncc(F)c1 [Compound 126, 6-(2-(cyclobutylmethoxy)pyrimidin-5-yl)-2-((5-fluoropyridin-3-yl)methyl)pyridazine-3(2H)-one]"
20,< 10,CC[C@@H](C)Oc1ncc(-c2ccc(=O)n(Cc3cncc(F)c3)n2)cn1 [Compound 127]

# Reference: patent US11873290B2, “Pyridazinone compounds and uses thereof” (Edgewise Therapeutics, Inc., priority 2018, dated 2024)
